Source: publication PMC6445168, “Design, synthesis and antimalarial activity of novel bis{N-[(pyrrolo[1,2-a]quinoxalin-4-yl)benzyl]-3-aminopropyl}amine derivatives” (Journal of Enzyme Inhibition and Medicinal Chemistry, 2017)
Where two headings read alike, the source gives them in different places.

Columns and labels:
[1] = Cytotoxicity evaluation, MTT assay; format: cell-based, human; conditions: human, HepG2 cells (hepatocarcinoma cell line, ATCC HB-8065); HepG2, 72 h incubation, mean ± SD of three independent experiments
Method: These assays were performed toward the human HepG2 cell line (HepG2 CC50). […] These cells express many of the hepatocyte-specific metabolic enzymes, thus enabling the cytotoxicity of tested product metabolites to be evaluated. […] Duplicate assays were performed for each sample. Each plate-well was then microscope-examined for detecting possible precipitate formation before the medium was aspirated from the wells. 100 μL of MTT solution (0.5 mg/mL in medium without FCS) were then added to each well. […] After this time, the MTT solution was removed and DMSO (100 μL) was added to dissolve the resulting blue formazan crystals. Plates were shaken vigorously (300 rpm) for 5 minutes. The absorbance was measured at 570 nm with 630 nm as reference wavelength spectrophotometer using a BIO-TEK ELx808 Absorbance Microplate Reader. DMSO was used as blank and doxorubicin (Sigma Aldrich) as positive control. Cell viability was calculated as percentage of control (cells incubated without compound). The 50% cytotoxic concentration was determined from the dose-response curve by using the TableCurve 2D V5.0 software (Systat Software, San Jose, CA).

[2] = system: P. falciparum CQ-resistant strain W2; assay: In vitro antiplasmodial activity, SYBR Green I fluorescence-based method, W2 strain; format: cell-based, Plasmodium falciparum; conditions: for IC50: Plasmodium falciparum, chloroquine-resistant strain W2, 48 h incubation, read-out: P. falciparum strains IC50 values, W2; for Selectivity Index HepG2/W2: ratio CC50 HepG2 / IC50 W2
Method: (§1) The in vitro antiplasmodial activities were tested over concentrations ranging from 39 nM to 40 μM against culture-adapted Plasmodium falciparum reference strains 3D7 and W2. […] The parasites were cultivated in RPMI medium (Sigma-Aldrich, Lyon, France) supplemented with 0.5% Albumax I (Life Technologies corporation, Paisley, United Kingdom), hypoxanthine (Sigma-Aldrich), gentamicin (Sigma-Aldrich), and human erythrocytes and were incubated at 37 °C in a candle jar, as described previously. The P. falciparum drug susceptibility test was carried out in 96-well flat bottom sterile plates under a final volume of 250 μL. After a 48 h incubation with the drugs, quantities of DNA in treated and control cultures of parasites in human erythrocytes were compared according to the SYBR Green I (Sigma-Aldrich) fluorescence-based method[38]^,[39]. Briefly, after incubation, plates were frozen at -20 °C until use. They were then left to thaw for 2 h at room temperature and 100 μL of the homogenized culture were transferred to 96-well flat bottom sterile black plates (Nunc Inc) already containing 100 μL of the SYBR Green I lysis buffer (2xSYBR Green, 20 mM Tris base pH 7.5, 5 mM EDTA, 0.008% w/v saponin, 0.08% w/v Triton X-100). […] Plates were incubated for 1 h at room temperature and then read on a fluorescence plate reader (Tecan, Austria) using excitation and emission wavelengths of 485 and 535 nm, respectively.

[3] = system: P. falciparum CQ-sensitive strain 3D7; assay: In vitro antiplasmodial activity, SYBR Green I fluorescence-based method, 3D7 strain; format: cell-based, Plasmodium falciparum; conditions: for IC50: chloroquine-sensitive strain 3D7, 48 h incubation, read-out: P. falciparum strains IC50 values, 3D7; for Selectivity Index HepG2/3D7: ratio CC50 HepG2 / IC50 3D7
Method: as §1

[4] = system: L. donovani (MHOM/IN/00/DEVI) promastigotes; assay: In vitro antileishmanial activity on promastigotes, MTT assay; format: cell-based; conditions: Leishmania donovani, 72 h incubation, mean ± SD of three independent experiments
Method: L. donovani (MHOM/IN/00/DEVI) used in this study was provided by the CNR Leishmania (Montpellier, France). The effects of the tested compounds on the growth of L. donovani (MHOM/IN/00/DEVI)promastigotes were assessed by MTT assay[41] .Briefly, promastigotes in log-phase in Schneider′s medium supplemented with 20% fetal calf serum (FCS), 2 mM L-glutamine and antibiotics (100 U/mL penicillin and 100 μg/mL streptomycin), were incubated at an average density of 10^6 parasites/mL in sterile 96-well plates with various concentrations of compounds dissolved in DMSO (final concentration less than 0.5% v/v), in duplicate. Appropriate controls treated by DMSO and pentamidine or amphotericin B (reference drugs purchased from Sigma-Aldrich) were added to each set of experiments. After a 72 h incubation period at 27 °C, parasite metabolic activity was determined. Each plate-well was then microscope-examined for detecting possible precipitate formation. 20 μL of MTT 3–(4,5-dimethylthiazol-2-yl)-2,5-diphenyltetrazolium bromide) solution (5 mg/mL) were added to each well followed by incubation for another 4 h. The enzyme reaction was then stopped by addition of 100 μL of 50% isopropanol – 10% sodium dodecyl sulfate[42] .Plates were shaken vigorously (300 rpm) for 10 minutes and the absorbance measured in a plate reader at 570 nm in a BIO-TEK ELx808 Absorbance Microplate Reader. […] IC50 were calculated by non-linear regression analysis processed on doseresponse curves, using TableCurve 2D V5.0 software. IC50 values represent the mean value calculated from three independent experiments.

[5] = Plasmodium falciparum, 3D7, 48 h

| SMILES | CC50 at 72 h [1] | IC50 [2] | Selectivity Index HepG2/W2 [2] | IC50 [3, 5] | Selectivity Index HepG2/3D7 [3] | IC50 [4] | IC50 [3] |
| --- | --- | --- | --- | --- | --- | --- | --- |
| CN(CCCNCc1ccc(-c2nc3ccccc3n3cccc23)cc1)CCCNCc1ccc(-c2nc3ccccc3n3cccc23)cc1 [1b, Bis{N-[4-(pyrrolo[1,2-a]quinoxalin-4-yl)benzyl]-3-aminopropyl}methylamine] | 1560 ± 600 nM | 4200 ± 650 nM | 0.37 | 1200 ± 200 nM | 1.30 |  |  |
| COc1ccc2c(c1)nc(-c1ccc(CNCCCN(C)CCCNCc3ccc(-c4nc5cc(OC)ccc5n5cccc45)cc3)cc1)c1cccn12 [1d, Bis{N-[4–(7-methoxypyrrolo[1,2-a]quinoxalin-4-yl)benzyl]-3-aminopropyl}methylamine] | 2570 ± 700 nM | 340 ± 40 nM | 7.56 | 4140 ± 30 nM | 0.62 | 3890 ± 300 nM |  |
| c1ccc(-c2cc3c(-c4ccc(CNCCCN5CCN(CCCNCc6ccc(-c7nc8ccccc8n8cc(-c9ccccc9)cc78)cc6)CC5)cc4)nc4ccccc4n3c2)cc1 [1l, Bis{N-[4–(2-phenylpyrrolo[1,2-a]quinoxalin-4-yl)benzyl]-3-aminopropyl}piperazine] |  | 1390 ± 130 nM |  | 8960 ± 690 nM |  |  |  |
| COc1ccc2nc(-c3cccc(CNCCCN(CCCNCc4cccc(-c5nc6ccc(OC)cc6n6cccc56)c4)CCCNCc4cccc(-c5nc6ccc(OC)cc6n6cccc56)c4)c3)c3cccn3c2c1 [1t, Tris{N-[3–(8-methoxypyrrolo[1,2-a]quinoxalin-4-yl)benzyl]-3-aminopropyl}amine] | 1720 ± 600 nM | 190 ± 20 nM | 9.05 | 240 ± 30 nM | 7.17 | ≥ 10000 nM |  |
| CCOc1ccn2c1c(-c1ccc(CNCCCN3CCN(CCCNCc4ccc(-c5nc6ccccc6n6ccc(OCC)c56)cc4)CC3)cc1)nc1ccccc12 [1k, Bis{N-[4–(3-ethoxypyrrolo[1,2-a]quinoxalin-4-yl)benzyl]-3-aminopropyl}piperazine] | 1480 ± 500 nM | 90 ± 10 nM | 16.44 | 190 ± 10 nM | 7.79 | ≥ 10000 nM |  |
| CN(CCCNCc1cccc(-c2nc3ccccc3n3cccc23)c1)CCCNCc1cccc(-c2nc3ccccc3n3cccc23)c1 [1m, Bis{N-[3-(pyrrolo[1,2-a]quinoxalin-4-yl)benzyl]-3-aminopropyl}methylamine] | 1940 ± 1000 nM | 120 ± 10 nM | 16.17 | 1070 ± 160 nM | 1.81 | 2800 ± 100 nM |  |
| COc1ccc2nc(-c3cccc(CNCCOCCOCCOCCNCc4cccc(-c5nc6ccc(OC)cc6n6cccc56)c4)c3)c3cccn3c2c1 [1u, N,N′-[oxybis(2,1-ethanediyloxy-2,1-ethanediyl)]bis-3–(8-methoxypyrrolo[1,2-a]quinoxalin-4-yl)benzylamine] | 1540 ± 700 nM | 250 ± 80 nM | 6.16 | ~80 nM | 20.26 | ≥ 10000 nM | 76 ± 9 nM |
| COc1ccc2nc(-c3ccc(CNCCCN(C)CCCNCc4ccc(-c5nc6ccc(OC)cc6n6cccc56)cc4)cc3)c3cccn3c2c1 [1f, Bis{N-[4–(8-methoxypyrrolo[1,2-a]quinoxalin-4-yl)benzyl]-3-aminopropyl}methylamine] | 3380 ± 900 nM | 130 ± 10 nM | 26 | 5850 ± 70 nM | 0.58 | 4250 ± 200 nM |  |
| c1ccc2c(c1)nc(-c1ccc(CNCCCN3CCN(CCCNCc4ccc(-c5nc6ccccc6n6cccc56)cc4)CC3)cc1)c1cccn12 [1c, Bis{N-[4-(pyrrolo[1,2-a]quinoxalin-4-yl)benzyl]-3-aminopropyl}piperazine] | 1250 ± 300 nM | 3400 ± 740 nM | 0.37 | 800 ± 120 nM | 1.56 | 1140 ± 200 nM |  |
| COc1ccc2nc(-c3cccc(CNCCCN4CCN(CCCNCc5cccc(-c6nc7ccc(OC)cc7n7cccc67)c5)CC4)c3)c3cccn3c2c1 [1p, Bis{N-[3–(8-methoxypyrrolo[1,2-a]quinoxalin-4-yl)benzyl]-3-aminopropyl}piperazine] | 1570 ± 800 nM | 170 ± 30 nM | 9.23 | 40 ± 4 nM | 39.25 | 3390 ± 400 nM |  |
| COc1ccc2nc(-c3ccc(CNCCCN4CCN(CCCNCc5ccc(-c6nc7ccc(OC)cc7n7cccc67)cc5)CC4)cc3)c3cccn3c2c1 [1g, Bis{N-[4–(8-methoxypyrrolo[1,2-a]quinoxalin-4-yl)benzyl]-3-aminopropyl}piperazine] | 2140 ± 1400 nM | 360 ± 40 nM | 5.94 | 2220 ± 250 nM | 0.96 | 1070 ± 100 nM |  |
| c1ccc2c(c1)cc1c(-c3ccc(CNCCCN4CCN(CCCNCc5ccc(-c6nc7ccccc7n7c6cc6ccccc67)cc5)CC4)cc3)nc3ccccc3n12 [1q, Bis{N-[4-(indolo[1,2-a]quinoxalin-6-yl)benzyl]-3-aminopropyl}piperazine] | 1560 ± 700 nM |  |  | 1000 ± 50 nM |  | 570 ± 100 nM |  |
| COc1ccc2nc(-c3cccc(CNCCCN(C)CCCNCc4cccc(-c5nc6ccc(OC)cc6n6cccc56)c4)c3)c3cccn3c2c1 [1o, Bis{N-[3–(8-methoxypyrrolo[1,2-a]quinoxalin-4-yl)benzyl]-3-aminopropyl}methylamine] | 1500 ± 900 nM | 206 ± 30 nM | 7.28 | 180 ± 20 nM | 8.33 | 3510 ± 100 nM |  |
| c1cc(CNCCCN2CCN(CCCNCc3cccc(-c4nc5ccccc5n5cccc45)c3)CC2)cc(-c2nc3ccccc3n3cccc23)c1 [1n, Bis{N-[3-(pyrrolo[1,2-a]quinoxalin-4-yl)benzyl]-3-aminopropyl}piperazine] | 2030 ± 1200 nM | 50 ± 10 nM | 40.6 | 370 ± 40 nM | 5.49 | 3710 ± 400 nM |  |
| c1ccc(-c2nc3ccccc3n3cc(CNCCCN4CCN(CCCNCc5cc6c(-c7ccccc7)nc7ccccc7n6c5)CC4)cc23)cc1 [1r, Bis{N-[(4-phenylpyrrolo[1,2-a]quinoxalin-2-yl)methyl]-3-aminopropyl}piperazine] |  | 750 ± 100 nM |  | 7220 ± 770 nM |  |  |  |
| C[C@@H]1[C@H](O)[C@@H](C)/C=C/C=C/C=C/C=C/C=C/C=C/C=C/[C@H](O[C@@H]2O[C@H](C)[C@@H](O)[C@H](N)[C@@H]2O)C[C@@H]2O[C@](O)(C[C@@H](O)C[C@@H](O)[C@H](O)CC[C@@H](O)C[C@@H](O)CC(=O)O[C@H]1C)C[C@H](O)[C@H]2C(=O)O [Amphotericin B, reference compound] |  |  |  |  |  | 100 ± 40 nM |  |
